Measured values: ChEMBL document CHEMBL1123903, “Synthesis and antimalarial effects of 4-[(7-chloro-4-quinolinyl)amino]-2-[(diethylamino)methyl] -6-alkylphenols and their N omega-oxides” (1987)

Experiments:
Format in all cases: functional
Mus musculus [1] = test: Number of mice surviving at 60 days postinfection when administered as a single dose of 320 mg/kg (sc) 72-h post infection
Mus musculus [2] = test: Number of mice surviving at 60 days postinfection when administered as a single dose of 80 mg/kg (sc) 72-h post infection
Plasmodium berghei [3] = test: Change in mean survival time of trophozoite-induced Plasmodium berghei infection after 40 mg/kg subcutaneous dose
Mus musculus [4] = test: Number of mice surviving at 60 days postinfection when administered as a single dose of 160 mg/kg (sc) 72-h post infection
Plasmodium berghei [5] = test: Change in mean survival time of trophozoite-induced Plasmodium berghei infection after 20 mg/kg subcutaneous dose
Mus musculus [6] = test: Number of mice surviving at 60 days postinfection when administered as a single dose of 640 mg/kg (sc) 72-h post infection
Plasmodium berghei [7] = test: Change in mean survival time of trophozoite-induced Plasmodium berghei infection after 160 mg/kg subcutaneous dose
Plasmodium berghei [8] = test: Change in mean survival time of trophozoite-induced Plasmodium berghei infection after 80 mg/kg subcutaneous dose
Mus musculus [9] = test: Antimalarial activity tested against trophozoite induced Plasmodium berghei in mice (Mus musculus) expressed as change in mean survival time after a single dose of 640 mg/kg (subcutaneously); conditions: route subcutaneous
Mus musculus [10] = test: Antimalarial activity tested against trophozoite induced Plasmodium berghei in mice (Mus musculus) expressed as change in mean survival time after a single dose of 320 mg/kg (subcutaneously); conditions: route subcutaneous
Mus musculus [11] = test: Number of mice surviving at 60 days postinfection when administered as a single dose of 320 mg/kg (sc) 72-h post infection (delta MST)
Mus musculus [12] = test: Number of mice surviving at 60 days postinfection when administered as a single dose of 160 mg/kg (sc) 72-h post infection (delta MST)
Mus musculus [13] = test: Antimalarial activity tested against trophozoite induced Plasmodium berghei in mice (Mus musculus) expressed as change in mean survival time after a single dose of 10 mg/kg (subcutaneously); conditions: route subcutaneous
Mus musculus [14] = test: Number of mice surviving at 60 days postinfection when administered as a single dose of 40 mg/kg (sc) 72-h post infection (delta MST)
Mus musculus [15] = test: Number of mice surviving at 60 days postinfection when administered as a single dose of 80 mg/kg (sc) 72-h post infection (delta MST)

Compound	Cures (Mus musculus [1])	Cures (Mus musculus [2])	Delta MST (Plasmodium berghei [3]) [days]	Cures (Mus musculus [4])	Delta MST (Plasmodium berghei [5]) [days]	Cures (Mus musculus [6])	Delta MST (Plasmodium berghei [7]) [days]	Delta MST (Plasmodium berghei [8]) [days]	Delta MST (Mus musculus [9]) [days]	Delta MST (Mus musculus [10]) [days]	Cures (Mus musculus [11])	Cures (Mus musculus [12])	Delta MST (Mus musculus [13]) [days]	Cures (Mus musculus [14])	Cures (Mus musculus [15])
CCN(CC)Cc1cc(Nc2ccnc3cc(Cl)ccc23)ccc1O.Cl	5	2	11.9	5	8.3	5									
CCN(CC)Cc1cc(Nc2cc[n+]([O-])c3cc(Cl)ccc23)cc(Sc2ccc(Cl)cc2)c1O			4.1		0.5		7.6	3.4	14.4	9					
CCN(CC)Cc1cc(Nc2cc[n+]([O-])c3cc(Cl)ccc23)cc(C2CCCCC2)c1O			3.9		0.5	5	22.4	8.5		24.9	4	3			
CCN(CC)Cc1cc(Nc2ccnc3cc(Cl)ccc23)cc(C(C)(C)C)c1O			0.5		0.1		1.9	1.7	6.3	5.9					
CCN(CC)Cc1cc(Nc2cc[n+]([O-])c3cc(Cl)ccc23)cc(C(C)(C)C)c1O			1.7		0.1		4.1	2.9	6.1	6.7			3.7		
CCc1cc(Nc2cc[n+]([O-])c3cc(Cl)ccc23)cc(CN(CC)CC)c1O			13.2		5.5	4	13.4	10.9	1.4	13.4	3	2	3.7	1	3
CCN(CC)Cc1cc(Nc2ccnc3cc(Cl)ccc23)c2c(c1O)CCCC2			12.8		12.6	3	15.1	14.8		28.3	3	2	6.8	2	2
CCN(CC)Cc1cc(Nc2ccnc3cc(Cl)ccc23)cc(C(C)C)c1O	5		27.9	5	18.1	5		25.4					11.1	3	4
CCN(CC)Cc1cc(Nc2ccnc3cc(Cl)ccc23)cc(Cc2ccccc2)c1O			1.7		0.2		3.7	3.4	7.9	7.8					
